According to patent US6395786B1, “Sleep inducing agent” (Taisho Pharmaceutical Co., Ltd., priority 1998, dated 2002):

System: male rhesus monkeys
Experiment: Sleep-inducing test by cisternal administration (videotape sleep score)
Assay type: in vivo
Details: 10 μg/monkey, 45 minutes after the administration, FIG. 2
Method: [Sleep-inducing Test by Cisternal Administration]
Three male rhesus monkeys weighing 3.6-4.4 kg were individually placed in cages, and the behaviors of the animals were recorded by videotape for an hour before administration of the drug and for 5 hours after administration of the drug. Compound 32 and prostaglandin D2 methyl ester (PGD2) were each dissolved in saline solution and sterilized through a Millipore filter. The drugs were infused cisternally to the monkeys anesthetized with isohalothane inhalation. The doses were 1 μg and 10 μg/0.1 ml/monkey. The same doses of the vehicle were infused cisternally to give a control group. The test was carried out according to the following test schedule.
Week 1: Group treated with vehicle
Week 2: Group treated with 1 μg of Compound 32/monkey
Week 3: Group treated with 10 μg of Compound 32/monkey
Week 4: Group treated with 10 μg of PGD2/monkey
To determine the sleep, the period for which the monkey closed both eyes was measured at intervals of 15 minutes by playing back the recorded videotape, and the results were scored according to the following scales.

## CCCCC[C@H](O)/C=C/[C@H]1C(=O)C[C@H](O)[C@@H]1C/C=C\CCCC(=O)OC [prostaglandin D2 methyl ester]
  sleep action observed: transient sleep action
